Patent US10717740B2, “Solid forms of acalabrutinib and process for preparation thereof” (DR. REDDY'S LABORATORIES LIMITED, priority 2017, dated 2020)

Assay: Solid-state storage stability of the crystalline form
Format: physicochemical

Measured: stability of crystalline form on storage

CC#CC(=O)N1CCC[C@H]1c1nc(-c2ccc(C(=O)Nc3ccccn3)cc2)c2c(N)nccn12 [form RSV3, acalabrutinib]
stable: 3 months at 2-8° C. | 3 months at 25° C./60% RH | 3 months at 40° C./75% RH
